# Source: ChEMBL document CHEMBL2074223 (Mol Pharmacol, 2000)
# T1: Bile salt export pump (Mus musculus, UniProt Q9QY30)
# T1 sequence (Q9QY30 whole entry): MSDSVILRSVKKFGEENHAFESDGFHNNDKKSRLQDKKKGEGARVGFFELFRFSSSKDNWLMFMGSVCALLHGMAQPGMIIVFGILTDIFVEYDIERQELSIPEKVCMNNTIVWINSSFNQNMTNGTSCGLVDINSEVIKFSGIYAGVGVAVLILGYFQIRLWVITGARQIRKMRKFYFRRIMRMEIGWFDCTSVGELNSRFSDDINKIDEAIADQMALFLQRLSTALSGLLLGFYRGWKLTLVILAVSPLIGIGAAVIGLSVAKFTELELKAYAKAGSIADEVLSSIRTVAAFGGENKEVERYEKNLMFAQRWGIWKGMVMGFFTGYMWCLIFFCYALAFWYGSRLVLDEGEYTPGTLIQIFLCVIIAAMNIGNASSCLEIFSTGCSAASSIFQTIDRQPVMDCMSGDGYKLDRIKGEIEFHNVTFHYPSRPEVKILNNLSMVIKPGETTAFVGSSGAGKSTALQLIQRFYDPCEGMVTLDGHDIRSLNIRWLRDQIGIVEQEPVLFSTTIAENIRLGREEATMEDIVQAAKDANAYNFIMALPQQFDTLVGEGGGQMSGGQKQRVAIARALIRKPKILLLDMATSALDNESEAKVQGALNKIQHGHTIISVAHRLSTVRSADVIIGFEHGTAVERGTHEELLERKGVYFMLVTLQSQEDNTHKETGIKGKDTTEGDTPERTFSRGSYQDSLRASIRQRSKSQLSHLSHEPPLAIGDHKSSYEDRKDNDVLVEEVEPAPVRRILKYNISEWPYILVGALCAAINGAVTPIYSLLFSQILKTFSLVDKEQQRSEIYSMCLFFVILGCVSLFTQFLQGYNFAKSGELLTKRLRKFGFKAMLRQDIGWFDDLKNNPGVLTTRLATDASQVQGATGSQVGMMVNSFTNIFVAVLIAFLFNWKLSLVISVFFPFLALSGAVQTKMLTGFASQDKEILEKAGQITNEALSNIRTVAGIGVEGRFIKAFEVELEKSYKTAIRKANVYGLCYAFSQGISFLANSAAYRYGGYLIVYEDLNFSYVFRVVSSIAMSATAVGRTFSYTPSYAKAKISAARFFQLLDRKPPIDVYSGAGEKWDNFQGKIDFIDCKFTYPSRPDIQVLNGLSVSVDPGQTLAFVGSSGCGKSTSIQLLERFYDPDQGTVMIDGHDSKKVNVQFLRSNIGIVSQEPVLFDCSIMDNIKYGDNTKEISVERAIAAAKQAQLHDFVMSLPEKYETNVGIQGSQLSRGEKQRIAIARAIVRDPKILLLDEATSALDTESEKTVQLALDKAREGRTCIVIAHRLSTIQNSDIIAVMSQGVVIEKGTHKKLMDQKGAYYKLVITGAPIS
# Experiments:
# Type in all cases: functional, cell-based
# [1] = test system: CC[C@]1(O)C[C@@H]2CN(CCc3c([nH]c4ccccc34)[C@@](C(=O)OC)(c3cc4c(cc3OC)N(C)[C@H]3[C@@](O)(C(=O)OC)[C@H](OC(C)=O)[C@]5(CC)C=CCN6CC[C@]43[C@@H]65)C2)C1; assay: (§1) TP_TRANSPORTER: intracellular accumulation in MDR1-expressing LLC-PK1 cells
# Bile salt export pump [2] = molecular target: T1, Bile salt export pump; assay: (§2) TP_TRANSPORTER: intracellular accumulation in Bsep-expressing LLC-PK1 cells; settings: pig
# [3] = molecular target: T2, ATP-dependent translocase ABCB1 (Homo sapiens, UniProt P08183); assay: as §1; settings: pig
# T2 sequence (P08183 whole entry): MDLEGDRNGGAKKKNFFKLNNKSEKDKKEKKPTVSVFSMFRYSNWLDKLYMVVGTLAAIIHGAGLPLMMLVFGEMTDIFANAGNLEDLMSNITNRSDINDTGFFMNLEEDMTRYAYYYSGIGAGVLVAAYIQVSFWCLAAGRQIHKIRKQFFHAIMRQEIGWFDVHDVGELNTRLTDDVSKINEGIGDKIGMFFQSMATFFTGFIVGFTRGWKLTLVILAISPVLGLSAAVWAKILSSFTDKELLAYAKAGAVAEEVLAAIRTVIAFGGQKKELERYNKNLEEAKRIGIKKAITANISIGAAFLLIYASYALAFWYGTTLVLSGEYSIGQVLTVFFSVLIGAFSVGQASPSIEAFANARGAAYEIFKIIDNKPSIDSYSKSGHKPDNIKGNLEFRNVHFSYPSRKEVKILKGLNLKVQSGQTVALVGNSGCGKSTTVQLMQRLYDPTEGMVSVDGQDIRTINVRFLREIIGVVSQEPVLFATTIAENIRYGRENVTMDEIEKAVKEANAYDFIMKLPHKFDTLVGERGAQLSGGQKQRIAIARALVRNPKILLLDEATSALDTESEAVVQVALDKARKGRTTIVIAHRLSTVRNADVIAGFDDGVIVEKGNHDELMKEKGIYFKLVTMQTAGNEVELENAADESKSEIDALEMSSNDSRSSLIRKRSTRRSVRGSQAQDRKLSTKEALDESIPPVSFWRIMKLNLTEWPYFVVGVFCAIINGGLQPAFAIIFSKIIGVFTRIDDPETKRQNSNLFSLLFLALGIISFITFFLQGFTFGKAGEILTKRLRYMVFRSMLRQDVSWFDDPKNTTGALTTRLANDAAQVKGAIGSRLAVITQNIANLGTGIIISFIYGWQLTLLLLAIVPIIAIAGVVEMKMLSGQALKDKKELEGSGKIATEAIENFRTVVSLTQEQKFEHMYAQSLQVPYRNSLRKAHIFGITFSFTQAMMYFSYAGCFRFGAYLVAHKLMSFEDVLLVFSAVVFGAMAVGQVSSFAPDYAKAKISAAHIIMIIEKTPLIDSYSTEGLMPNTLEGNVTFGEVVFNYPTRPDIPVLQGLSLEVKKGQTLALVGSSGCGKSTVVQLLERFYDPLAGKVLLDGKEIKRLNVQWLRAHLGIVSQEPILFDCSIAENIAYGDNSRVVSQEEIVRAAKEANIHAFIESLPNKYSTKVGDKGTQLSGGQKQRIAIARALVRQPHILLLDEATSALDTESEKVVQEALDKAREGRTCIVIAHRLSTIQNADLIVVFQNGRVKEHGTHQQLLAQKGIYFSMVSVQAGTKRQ
# [4] = molecular target: T2, ATP-dependent translocase ABCB1; assay: TP_TRANSPORTER: increase in Calcein-AM intracellular accumulation (Calcein-AM: 1 uM, Ditekiren: 20 uM) in MDR1-expressing LLC-PK1 cells; settings: pig, llc-pk1, 20 µM
# Bile salt export pump [5] = molecular target: T1, Bile salt export pump; assay: TP_TRANSPORTER: increase in Calcein-AM intracellular accumulation (Calcein-AM: 1 uM, Ditekiren: 20 uM) in Bsep-expressing LLC-PK1 cells; settings: pig, llc-pk1, 20 µM
# Bile salt export pump [6] = molecular target: T1, Bile salt export pump; assay: TP_TRANSPORTER: increase in Calcein-AM intracellular accumulation (Calcein-AM: 1 uM, Reserpine: 20 uM) in Bsep-expressing LLC-PK1 cells; settings: pig, llc-pk1, 20 µM
# [7] = substrate: CC[C@]1(O)C[C@@H]2CN(CCc3c([nH]c4ccccc34)[C@@](C(=O)OC)(c3cc4c(cc3OC)N(C)[C@H]3[C@@](O)(C(=O)OC)[C@H](OC(C)=O)[C@]5(CC)C=CCN6CC[C@]43[C@@H]65)C2)C1; assay: as §2
Molecule,Activity [3],Activity (Bile salt export pump [2]),further results
ATP-dependent translocase ABCB1 (Homo sapiens),–,–,Km [1]: 99.4 µM
CC[C@]1(O)C[C@H]2CN(CCc3c([nH]c4ccccc34)[C@@](C(=O)OC)(c3cc4c(cc3OC)N(C=O)[C@H]3[C@@](O)(C(=O)OC)[C@H](OC(C)=O)[C@]5(CC)C=CCN6CC[C@]43[C@@H]65)C2)C1 [VINCRISTINE],substrate [+],is not a substrate [-],–
COc1cccc2c1C(=O)c1c(O)c3c(c(O)c1C2=O)C[C@@](O)(C(C)=O)C[C@@H]3O[C@H]1C[C@H](N)[C@H](O)[C@H](C)O1 [DAUNORUBICIN],substrate [+],is not a substrate [-],–
C[C@H]1O[C@@H](O[C@H]2[C@@H](O)C[C@H](O[C@H]3[C@@H](O)C[C@H](O[C@H]4CC[C@@]5(C)[C@H](CC[C@@H]6[C@@H]5C[C@@H](O)[C@]5(C)[C@@H](C7=CC(=O)OC7)CC[C@]65O)C4)O[C@@H]3C)O[C@@H]2C)C[C@H](O)[C@@H]1O [DIGOXIN],–,is not a substrate [-],–
CC[C@H](C)[C@H](NC(=O)[C@@H](C[C@H](O)[C@H](CC(C)C)NC(=O)[C@H](Cc1c[nH]cn1)N(C)C(=O)[C@H](Cc1ccccc1)NC(=O)[C@@H]1CCCN1C(=O)OC(C)(C)C)C(C)C)C(=O)NCc1ccccn1,–,–,Activity [4]: is not an inhibitor [-]; Activity (Bile salt export pump [5]): inhibitor [+]
COC(=O)[C@H]1[C@H]2C[C@@H]3c4[nH]c5cc(OC)ccc5c4CCN3C[C@H]2C[C@@H](OC(=O)c2cc(OC)c(OC)c(OC)c2)[C@@H]1OC [RESERPINE],–,–,Activity (Bile salt export pump [6]): inhibitor [+]
Bile salt export pump (Mus musculus) (protein) MSDSVILRSVKKFGEENHAFESDGFHNNDKKSRLQDKKKGEGARVGFFELFRFSSSKDNWLMFMGSVCALLHGMAQPGMIIVFGILTDIFVEYDIERQELSIPEKVCMNNTIVWINSSFNQNMTNGTSCGLVDINSEVIKFSGIYAGVGVAVLILGYFQIRLWVITGARQIRKMRKFYFRRIMRMEIGWFDCTSVGELNSRFSDDINKIDEAIADQMALFLQRLSTALSGLLLGFYRGWKLTLVILAVSPLIGIGAAVIGLSVAKFTELELKAYAKAGSIADEVLSSIRTVAAFGGENKEVERYEKNLMFAQRWGIWKGMVMGFFTGYMWCLIFFCYALAFWYGSRLVLDEGEYTPGTLIQIFLCVIIAAMNIGNASSCLEIFSTGCSAASSIFQTIDRQPVMDCMSGDGYKLDRIKGEIEFHNVTFHYPSRPEVKILNNLSMVIKPGETTAFVGSSGAGKSTALQLIQRFYDPCEGMVTLDGHDIRSLNIRWLRDQIGIVEQEPVLFSTTIAENIRLGREEATMEDIVQAAKDANAYNFIMALPQQFDTLVGEGGGQMSGGQKQRVAIARALIRKPKILLLDMATSALDNESEAKVQGALNKIQHGHTIISVAHRLSTVRSADVIIGFEHGTAVERGTHEELLERKGVYFMLVTLQSQEDNTHKETGIKGKDTTEGDTPERTFSRGSYQDSLRASIRQRSKSQLSHLSHEPPLAIGDHKSSYEDRKDNDVLVEEVEPAPVRRILKYNISEWPYILVGALCAAINGAVTPIYSLLFSQILKTFSLVDKEQQRSEIYSMCLFFVILGCVSLFTQFLQGYNFAKSGELLTKRLRKFGFKAMLRQDIGWFDDLKNNPGVLTTRLATDASQVQGATGSQVGMMVNSFTNIFVAVLIAFLFNWKLSLVISVFFPFLALSGAVQTKMLTGFASQDKEILEKAGQITNEALSNIRTVAGIGVEGRFIKAFEVELEKSYKTAIRKANVYGLCYAFSQGISFLANSAAYRYGGYLIVYEDLNFSYVFRVVSSIAMSATAVGRTFSYTPSYAKAKISAARFFQLLDRKPPIDVYSGAGEKWDNFQGKIDFIDCKFTYPSRPDIQVLNGLSVSVDPGQTLAFVGSSGCGKSTSIQLLERFYDPDQGTVMIDGHDSKKVNVQFLRSNIGIVSQEPVLFDCSIMDNIKYGDNTKEISVERAIAAAKQAQLHDFVMSLPEKYETNVGIQGSQLSRGEKQRIAIARAIVRDPKILLLDEATSALDTESEKTVQLALDKAREGRTCIVIAHRLSTIQNSDIIAVMSQGVVIEKGTHKKLMDQKGAYYKLVITGAPIS,–,–,Km [7]: 38.3 µM

# Further lines, with some results ahead:
Activity [3],Molecule,Activity (Bile salt export pump [2]),further results
substrate [+],COC(=O)c1ccccc1-c1c2ccc(=N)cc-2oc2cc(N)ccc12.Cl [RHODAMINE123],is not a substrate [-],–
substrate [+],CC(=O)OCOC(=O)CN(CC(=O)OCOC(C)=O)Cc1c(OC(C)=O)ccc2c1Oc1c(ccc(OC(C)=O)c1CN(CC(=O)OCOC(C)=O)CC(=O)OCOC(C)=O)C21OC(=O)c2ccccc21,substrate [+],–
substrate [+],CC(=O)O[C@H]1C(=O)[C@@]2(C)[C@H]([C@H](OC(=O)c3ccccc3)[C@]3(O)C[C@H](OC(=O)[C@H](O)[C@@H](NC(=O)c4ccccc4)c4ccccc4)C(C)=C1C3(C)C)[C@]1(OC(C)=O)CO[C@@H]1C[C@@H]2O [PACLITAXEL],is not a substrate [-],–
